Experimental data as given in patent US7803792B2, “Quaternary ammonium compounds” (Asahi Kasei Pharma Corporation, priority 2002, dated 2010).

How the values were obtained:
[1] = system: Rat model loaded with high cholesterol diet; experiment: Blood cholesterol lowering effect in rats fed on a high cholesterol diet (Test Example 1); type: in vivo; settings: treatment model; 0.3 mg/kg at a time, oral twice a day; control group = 100%
Experimental: Blood Cholesterol Lowering Effect in Rats Fed on a High Cholesterol Diet
In this test example, blood cholesterol level lowering effect in rats fed on a high cholesterol diet was tested according to the method described in J. Lipid, Res., 1995, 36, 1098-1105.
That is, a diet containing 0.4% cholesterol and 0.5% of bile acid was given to 7 to 9 weeks old SD (IGS) male rats for 5 days before the test to increase the blood cholesterol level. […] Cholestimide (trade name: CHOLEBINE GRANULE 70% manufactured by MITSUBISHI TOKYO PHARMACEUTICALS, INC.), which is an anion exchange resin, was suspended in distilled water while the test compound was either dissolved or suspended in distilled water. These were forcibly orally administered twice a day every day from the day of beginning of the test (each n=8). After 3 hours from the administration of the drug on the last day of the test, a blood sample was taken from a jugular vein pool and serum cholesterol level was measured to study the effect of the test compound. Further, as a control group, a group (n=8) fed on only high cholesterol diet and given distilled water (1 ml/kg) was prepared and the same test procedure was followed. A commercially available kit was used for the measurement of total cholesterol and HDL cholesterol. The value obtained by subtracting an HDL cholesterol value from the total cholesterol value was taken as an LDL+VLDL cholesterol value. Assuming the LDL+VLDL cholesterol value of the control group, for which the test compound was not used, as 100%, the rate of decrease (percentage of decrease) of LDL +VLDL cholesterol value when a fixed amount of the test compound was used, was determined.

[2] = system: Cholic acid-loaded rat model; experiment: Bile acid-decreasing effect in portal vein of rats loaded with cholic acid (Test Example 2); type: in vivo; settings: 0.1 mg/kg oral with cholic acid 200 mg/kg; portal vein blood after 2 hours; HCO-60 0.1%
Procedure, shortened: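 SD (IGS) rats aged 7 to 9 weeks were fasted from the day before testing, then given cholic acid (200 mg/kg) together with the test compound by forced oral dosing. Portal vein blood was drawn 2 hours later, and total serum bile acid was measured with a commercial kit (n=6). The percent decrease was calculated relative to a cholic acid-only control group set at 100%.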

KKAy/Ta Jcl obese mice = experiment: Obesity and fatty liver model (Test Example 6); type: in vivo, mouse; settings: average ± standard error; for Body Weight (g) 2 weeks later / Liver triglyceride / Body Weight (g) Variation amount: 1 mg/kg once a day for 2 weeks; for Liver triglyceride: controls 94 ± 18 / 103 ± 19; for Body Weight (g) Variation amount: controls −0.8 ± 0.5 / 0.7 ± 0.4; for Body Weight (g) Before administration: baseline of the 1 mg/kg group
Experimental: Obesity and Fatty Liver Model
The obesity and fatty liver model in this test example was handled by referring to the method described in WO02/09757.
That is, 10 weeks old KKA^y/Ta Jcl male mice were used as obese mice (N=from 4 to 7). The test compounds dissolved or suspended in an aqueous solution of 1% HCO60 (manufactured by NIPPON CHEMICALS COMPANY, LTD.) and an aqueous solution of 1% HCO60 (manufactured by NIPPON CHEMICALS COMPANY, LTD.) as a control group were administered once a day for 2 weeks continuously. The weights of the mice were measured every day and compared with the weights measured on the day before the administration. On the day next to the final day of administration of the drug, the livers were extracted and concentrations of triglycerides in the liver tissues were measured by using a measurement kit (TRIGLYCERIDE TEST WAKO, manufactured by WAKO PURE CHEMICAL […], LTD.).

Caco 2 cells = experiment: Toxicity with respect to alimentary canal: cytotoxicity to Caco 2, LDH activity (Test Example 12); type: cell-based, human; settings: LDH activity after 2 hours, relative to cytolytic agent = 100%
Procedure, shortened: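 Human Caco 2 intestinal cells, cultured 48 hours after seeding at 10,000 cells/well, received test compounds diluted in medium. LDH released into the medium after 2 hours was measured and expressed relative to cytolytic-agent-lysed cells (100%) as cytotoxicity.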

Structure (SMILES) | Rate of decrease (%) of LDL + VLDL [1] [%] | Rate of decrease (%) of bile acid [2] [%] | Body Weight (g) 2 weeks later (KKAy/Ta Jcl obese mice) [g] | Liver triglyceride (KKAy/Ta Jcl obese mice) [mg/g] | Body Weight (g) Variation amount (KKAy/Ta Jcl obese mice) [g] | Body Weight (g) Before administration (KKAy/Ta Jcl obese mice) [g] | Toxicity (%) to Caco 2 (Caco 2 cells; 3 μM) [%] | Toxicity (%) to Caco 2 (Caco 2 cells; 10 μM) [%] | Toxicity (%) to Caco 2 (Caco 2 cells; 30 μM) [%]
CCCCC1(CCCC)CS(=O)(=O)c2ccc(N(C)C)cc2C(c2cccc(NC(=S)CCCCC[N+]34CCC(CC3)CC4)c2)N1.[Br-] (stereo not shown) [Example 1, 1-{5-[3-(3,3-Dibutyl-7-dimethylamino-1,1-dioxo-2,3,4,5-tetrahydro-1,4-benzothiazepin-5-yl)phenylthiocarbamoyl]pentyl}-1-azoniabicyclo[2.2.2]octane bromide] | 49 | – | – | – | – | – | – | – | –
CCCCC1(CCCC)CS(=O)(=O)c2ccc(N(C)C)cc2C(c2cccc(NC(=S)Nc3ccc(C[N+](C)(C)Cc4ccccc4)cc3)c2)N1.[Br-] (stereo not shown) [Example 3440] | 36 | 26 | 43.9 ± 1.8 | 88 ± 6 | -0.7 ± 1.0 | 44.6 ± 0.8 | <1 | <1 | <1
C#CC[N+](C)(Cc1ccccc1)Cc1ccc(NC(=S)Nc2cccc(C3NC(CCCC)(CCCC)CS(=O)(=O)c4ccc(N(C)C)cc43)c2)cc1 (stereo not shown) [Example 3448] | 20 | 25 | 42.1 ± 3.2 | 74 ± 8 | -2.0 ± 0.7 | 44.1 ± 0.7 | <1 | <1 | <1
CCCCC1(CCCC)CS(=O)(=O)c2ccc(N(C)C)cc2C(c2cccc(NC(=S)Nc3ccc(C[N+]4(Cc5ccccc5)CCC(O)CC4)cc3)c2)N1.[Br-] (stereo not shown) [Example 3605] | 28 | 24 | 41.4 ± 1.0 | 65 ± 7 | -1.5 ± 0.4 | 42.9 ± 1.1 | <1 | <1 | <1
CCCCC1(CCCC)CS(=O)(=O)c2ccc(N(C)C)cc2C(c2cccc(NC(=S)Nc3ccc(C[N+]45CCC(c6ccccc6)(CC4)CC5)cc3)c2)N1.[Br-] (stereo not shown) [Example 3696] | 25 | 13 | 42.2 ± 2.2 | 76 ± 12 | -1.3 ± 0.3 | 43.5 ± 1.3 | <1 | <1 | <1
CCCCC1(CCCC)CS(=O)(=O)c2ccc(N(C)C)cc2C(c2cccc(NC(=S)Nc3ccc(C[n+]4ccc(C(C)(C)C)cc4)cc3)c2)N1.[Br-] (stereo not shown) [Example 3713] | 41 | 32 | 41.5 ± 2.4 | 59 ± 33 | -2.5 ± 0.6 | 44.0 ± 1.1 | <1 | <1 | <1
CCCCC1(CCCC)CS(=O)(=O)c2ccc(N(C)C)cc2C(c2cccc(NC(=S)Nc3ccc(C[n+]4cccc(CCCO)c4)cc3)c2)N1.[Br-] (stereo not shown) [Example 3747] | 48 | 40 | 42.2 ± 1.8 | 47 ± 23 | -2.1 ± 1.0 | 44.3 ± 0.8 | <1 | <1 | <1
CCCCC1(CCCC)CS(=O)(=O)c2ccc(N(C)C)cc2C(c2cccc(NC(=S)Nc3ccc(C[n+]4cccc(CCC(=O)OC)c4)cc3)c2)N1.[Br-] (stereo not shown) [Example 3752] | 50 | 42 | 41.5 ± 1.0 | 56 ± 23 | -2.3 ± 0.9 | 43.8 ± 1.2 | <1 | <1 | <1
CCCCC1(CCCC)CS(=O)(=O)c2ccc(N(C)C)cc2C(c2cccc(NC(=S)Nc3ccc(C[n+]4ccccc4CCC)cc3)c2)N1.[Br-] (stereo not shown) [Example 5408] | 43 | 35 | 42.2 ± 1.6 | 70 ± 11 | -1.8 ± 0.5 | 44.0 ± 0.9 | <1 | <1 | <1
